According to ChEMBL document CHEMBL3526047, “Excretion, metabolism, and pharmacokinetics of 1-(8-(2-chlorophenyl)-9-(4-chlorophenyl)-9H-purin-6-yl)-4-(ethylamino)piperidine-4-carboxamide, a selective cannabinoid receptor antagonist, in healthy male volunteers” (Drug Metab Dispos, 2012):
Each block holds one molecule with its values, some of them ahead of it.

Assays:
[1] = Drug excretion in urine of healthy obese adult male human treated with [14C]CP-945,598 at 25 mg, po administered as single dose after 0 to 384 hrs hrs by HPLC method; type: ADME, organism-based; conditions: in vivo
[2] = tested on: Homo sapiens; experiment: Total drug excretion in healthy obese adult male human treated with [14C]CP-945,598 at 25 mg, po administered as single dose after 0 to 384 hrs hrs by HPLC method; type: ADME, organism-based; conditions: in vivo
[3] = Drug excretion in feces of healthy obese adult male human treated with [14C]CP-945,598 at 25 mg, po administered as single dose after 0 to 384 hrs hrs by HPLC method; type: ADME, organism-based; conditions: in vivo
[4] = target: Cytochrome P450 3A4 (Homo sapiens, UniProt P08684); experiment: Drug metabolism assessed as human recombinant CYP3A4-mediated metabolite formation after 60 mins by HPLC method; type: ADME; conditions: recombinant enzyme, 1 h
[5] = tested on: Serum; experiment: Drug level in serum of healthy obese adult male human treated with [14C]CP-945,598 at 25 mg, po administered as single dose after 12 hrs by HPLC method; type: ADME, organism-based; conditions: in vivo
[6] = tested on: Serum; experiment: Total drug level in serum of healthy obese adult male human treated with [14C]CP-945,598 at 25 mg, po administered as single dose after 48 hrs by HPLC method; type: ADME, organism-based; conditions: in vivo
[7] = tested on: Serum; experiment: Drug level in serum of healthy obese adult male human treated with [14C]CP-945,598 at 25 mg, po administered as single dose after 4 hrs by HPLC method; type: ADME, organism-based; conditions: in vivo
[8] = tested on: Serum; experiment: AUC in serum of healthy obese adult male human treated with [14C]CP-945,598 at 25 mg, po administered as single dose after 48 hrs by HPLC method; type: ADME, organism-based; design: time < 48 hr, dose 25 mg, route oral; conditions: in vivo
[9] = tested on: Serum; experiment: Drug level in serum of healthy obese adult male human treated with [14C]CP-945,598 at 25 mg, po administered as single dose after 48 hrs by HPLC method; type: ADME, organism-based; conditions: in vivo
[10] = tested on: Serum; experiment: Drug level in serum of healthy obese adult male human treated with [14C]CP-945,598 at 25 mg, po administered as single dose after 24 hrs by HPLC method; type: ADME, organism-based; conditions: in vivo
[11] = Terminal phase half life in human; type: ADME, organism-based; conditions: in vivo, read-out: beta t1/2 (converted)
[12] = Tmax in healthy obese adult male human at 25 mg, po administered as single dose; type: ADME, organism-based; conditions: in vivo
[13] = Cmax in healthy obese adult male human at 25 mg, po administered as single dose; type: ADME, organism-based; design: dose 25 mg, route oral; conditions: in vivo
[14] = tested on: Homo sapiens; experiment: AUC (0 to infinity) in healthy obese adult male human at 25 mg, po administered as single dose; type: ADME, organism-based, Plasma; design: dose 25 mg, route oral, time infinity; conditions: in vivo
[15] = Terminal elimination half life in healthy obese adult male human at 25 mg, po administered as single dose; type: ADME, organism-based; conditions: in vivo, read-out: beta t1/2 (converted)
[16] = Bioavailability in rat; type: ADME, organism-based; conditions: in vivo
[17] = tested on: Homo sapiens; experiment: AUC (0 to last) in healthy obese adult male human at 25 mg, po administered as single dose; type: ADME, organism-based, Plasma; design: dose 25 mg, time 0 - last, route oral; conditions: in vivo
[18] = Bioavailability in dog; type: ADME, organism-based, Canis lupus familiaris; conditions: in vivo
[19] = Tmax in human; type: ADME, organism-based; conditions: in vivo

Chain of Cytochrome P450 3A4 (P08684 whole entry): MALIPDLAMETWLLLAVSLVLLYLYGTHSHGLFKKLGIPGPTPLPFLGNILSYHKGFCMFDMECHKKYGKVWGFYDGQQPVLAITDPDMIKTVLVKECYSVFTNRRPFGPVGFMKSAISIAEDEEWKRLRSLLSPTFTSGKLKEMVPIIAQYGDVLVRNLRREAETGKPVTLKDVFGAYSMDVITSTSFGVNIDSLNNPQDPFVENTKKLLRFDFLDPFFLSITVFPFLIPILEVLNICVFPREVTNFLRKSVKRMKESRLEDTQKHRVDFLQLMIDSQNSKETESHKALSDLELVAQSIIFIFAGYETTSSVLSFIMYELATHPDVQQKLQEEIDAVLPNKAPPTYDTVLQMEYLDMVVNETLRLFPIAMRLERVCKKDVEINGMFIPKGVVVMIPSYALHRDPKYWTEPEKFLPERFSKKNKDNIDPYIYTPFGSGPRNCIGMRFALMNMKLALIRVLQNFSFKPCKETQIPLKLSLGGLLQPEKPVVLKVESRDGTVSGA

- Drug excretion [1]: 5.4%
- Drug excretion [2]: 36.3%
- Drug excretion [3]: 30.9%
Structure (SMILES): NC1(C(=O)O)CCN(c2ncnc3c2nc(-c2ccccc2Cl)n3-c2ccc(Cl)cc2)CC1

- Drug excretion [1]: 4.8%
- Drug excretion [2]: 4.8%
Structure (SMILES): NC(=O)C1(NO[C@@H]2O[C@H](CO)[C@@H](O)[C@H](O)[C@H]2O)CCN(c2ncnc3c2nc(-c2ccccc2Cl)n3-c2ccc(Cl)cc2)CC1

- Drug metabolism [4]: 8.8%
- Drug excretion [1]: 0.6%
- Drug excretion [2]: 1.8%
- Drug excretion [3]: 1.2%
Structure (SMILES): NC(=O)C1(NO)CCN(c2ncnc3c2nc(-c2ccccc2Cl)n3-c2ccc(Cl)cc2)CC1

- Drug uptake [5]: 10.9 ngequiv/g
- Drug uptake [6]: 17.9 ngequiv/g
- Drug uptake [7]: 10.1 ngequiv/g
- Drug metabolism [4]: 13%
- AUC [8]: 438 ngequiv.hr/g
- Drug uptake [9]: 6 ngequiv/g
- Drug uptake [10]: 10.9 ngequiv/g
Structure (SMILES): ON=C1CCN(c2ncnc3c2nc(-c2ccccc2Cl)n3-c2ccc(Cl)cc2)CC1

- half-life [11]: 4.46 days
- Tmax [12]: 6 h
- Cmax [13]: 14 ng/mL
- AUC [14]: 864 ng·h/mL
- half-life [15]: 6.62 days
- bioavailability [16]: 32%
- AUClast [17]: 778 ng·h/mL
- bioavailability [18]: 32%
- Tmax [19]: 4 h
Structure (SMILES): CCNC1(C(N)=O)CCN(c2ncnc3c2nc(-c2ccccc2Cl)n3-c2ccc(Cl)cc2)CC1.Cl [OTENABANT HYDROCHLORIDE]
